The source of these data is ChEMBL document CHEMBL1201862, “PubChem BioAssay data set” (2004).

Test systems include OVCAR-5; MDA-N; TK-10; IGROV-1; UACC-257; NCI-H23; SK-MEL-2; HCT-15; MCF7; ACHN; OVCAR-3; 786-0; COLO 205; Malme-3M; SK-OV-3; SK-MEL-5; Hs-578T; U-251; MDA-MB-435; OVCAR-4.
Holding throughout (assay): growth of human tumour cells (NCI), 48 h

Structures are written as SMILES.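 The compound was tested at five concentrations on cells cultured in 96-well plates, with a 48-hour exposure period. The concentration for 50% growth inhibition is given as GI50.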 Calls of active or inactive are those of the source. Cut-off read from the data, not from the text of the source: active = GI50 up to about 1.1 µM and inactive = higher. Some results are limits rather than exact numbers.

In the case of `CCOC(=O)[C@@H]1C[C@H]1c1ccc(O)c(O)c1`, the GI50 in the experiment on OVCAR-5 was > 100 µM (inactive); in the experiment on MDA-N it was 12.7 µM (inactive); in the experiment on TK-10, 20.7 µM (inactive); in the experiment on IGROV-1, 24.4 µM (inactive); in the experiment with UACC-257 it was 19.9 µM (inactive); with NCI-H23, 4.74 µM (inactive). The GI50 in the experiment with SK-MEL-2 is 18.2 µM (inactive); in the experiment on HCT-15 it was 33.6 µM; in the experiment with MCF7 it was 43.9 µM (inactive); in the experiment with ACHN, 65.2 µM (inactive); with OVCAR-3, 29 µM (inactive); in the experiment on 786-0, 41.4 µM (inactive). The GI50 in the experiment on COLO 205 was 57.8 µM (inactive); in the experiment on Malme-3M it was 31.8 µM (inactive); in the experiment on SK-OV-3, 43.1 µM (inactive); with SK-MEL-5 it was 16.6 µM (inactive); in the experiment on Hs-578T, 28.4 µM (inactive); in the experiment with U-251, 69.7 µM (inactive). The GI50 in the experiment on MDA-MB-435 is 10.2 µM (inactive).

As for `CSC1=N/C(=C\c2ccc(Cl)cc2)C(=O)N1CN1CCOCC1`, the GI50 was 87.9 µM (inactive) in the experiment with OVCAR-5; 47.8 µM (inactive) with MDA-N; 27.5 µM (inactive) in the experiment on TK-10; 27.4 µM (inactive) in the experiment with IGROV-1; 21 µM (inactive) in the experiment with OVCAR-4; 66.8 µM (inactive) in the experiment with NCI-H23. The GI50 in the experiment with SK-MEL-2 is 52.8 µM (inactive); in the experiment on HCT-15, 21.6 µM; with MCF7, 5.75 µM (inactive); in the experiment on ACHN it was 31.3 µM (inactive); with OVCAR-3, 41.7 µM (inactive); with 786-0, 33.4 µM (inactive). In addition, the GI50 was 28.9 µM (inactive) in the experiment with COLO 205; 52.2 µM (inactive) in the experiment with Malme-3M; 30.6 µM (inactive) in the experiment on SK-OV-3; 32.6 µM (inactive) with SK-MEL-5; 33 µM (inactive) in the experiment on Hs-578T; 27 µM (inactive) in the experiment on U-251. Besides, in the experiment with MDA-MB-435, the GI50 was 58.3 µM (inactive).

Consider `Cc1cccc(-c2cccc(COCc3cccc(-c4cccc(CO)n4)n3)n2)n1`, for which the GI50 was > 50 µM (inactive) with OVCAR-5; > 50 µM (inactive) with MDA-N; 32.5 µM (inactive) with TK-10; 13 µM (inactive) with IGROV-1; > 50 µM (inactive) with OVCAR-4; 12.8 µM (inactive) with UACC-257. For the same compound, the GI50 was > 50 µM (inactive) with SK-MEL-2; 35.2 µM in the experiment with HCT-15; 36.2 µM (inactive) in the experiment with MCF7; > 50 µM (inactive) in the experiment with ACHN; 3.7 µM (inactive) with OVCAR-3; 38.5 µM (inactive) in the experiment on 786-0. Besides, the GI50 with COLO 205 is 4.11 µM (inactive); in the experiment on SK-OV-3 it was > 50 µM (inactive); with SK-MEL-5, 11.7 µM (inactive); with Hs-578T, 35.7 µM (inactive); with U-251, > 50 µM (inactive); with MDA-MB-435, > 50 µM (inactive).

Consider `NC(=O)C(c1ccccc1)N1OC2C(=O)N(c3ccccc3)C(=O)C2C1c1c2ccccc2c(Cl)c2ccccc12` (centres undefined), for which the GI50 in the experiment with OVCAR-5, in the experiment on MDA-N, in the experiment with IGROV-1, with OVCAR-4, in the experiment with NCI-H23 and with SK-MEL-2 was > 100 µM (inactive) throughout. The GI50 is above 100 µM with HCT-15; > 100 µM (inactive) in the experiment on MCF7; > 100 µM (inactive) in the experiment on ACHN; > 100 µM (inactive) with OVCAR-3; > 100 µM (inactive) in the experiment on 786-0; > 100 µM (inactive) in the experiment on COLO 205. Moreover, the GI50 in the experiment with Malme-3M, with SK-OV-3, with SK-MEL-5, with Hs-578T, in the experiment on U-251 and in the experiment with MDA-MB-435 was > 100 µM (inactive) throughout.

In the case of `O=C(COc1ccccc1)N(C(=O)N1CCN(c2ccccc2)CC1)S(=O)(=O)c1ccccc1`, the GI50 in the experiment on OVCAR-5 was > 100 µM (inactive); in the experiment on MDA-N, 62.4 µM (inactive); in the experiment with TK-10, > 100 µM (inactive); with OVCAR-4 it was > 100 µM (inactive); in the experiment on UACC-257 it was > 100 µM (inactive); in the experiment on NCI-H23, > 100 µM (inactive). The GI50 in the experiment with SK-MEL-2 is > 100 µM (inactive); in the experiment on HCT-15, 47.5 µM; in the experiment on MCF7, 45.9 µM (inactive); with ACHN it was > 100 µM (inactive); in the experiment on OVCAR-3 it was 62.4 µM (inactive); in the experiment on 786-0 it was 44.2 µM (inactive). Besides, the GI50 in the experiment on COLO 205 was > 100 µM (inactive); in the experiment on Malme-3M, > 100 µM (inactive); in the experiment on SK-OV-3, > 100 µM (inactive); with SK-MEL-5 it was > 100 µM (inactive); in the experiment with Hs-578T, > 100 µM (inactive); in the experiment on U-251, 30.8 µM (inactive). Also, the GI50 with MDA-MB-435 was > 100 µM (inactive).

For the compound `Cc1cc2ccc(N)nc2nc1O`, the GI50 in the experiment with OVCAR-5, in the experiment on MDA-N, with TK-10, with IGROV-1, in the experiment on UACC-257 and in the experiment on NCI-H23 was > 100 µM (inactive) each time. In addition, the GI50 was > 100 µM (inactive) in the experiment with SK-MEL-2; above 100 µM with HCT-15; > 100 µM (inactive) with MCF7; 52 µM (inactive) in the experiment with ACHN; > 100 µM (inactive) in the experiment on 786-0; > 100 µM (inactive) in the experiment on COLO 205. The GI50 in the experiment on Malme-3M was > 100 µM (inactive); in the experiment on SK-OV-3 it was > 100 µM (inactive); with SK-MEL-5, > 100 µM (inactive); with Hs-578T, > 100 µM (inactive); in the experiment on U-251, 99.1 µM (inactive); with MDA-MB-435, > 100 µM (inactive).

With `N#CCCN(CCC#N)c1ccc(/C=C2\N=C(c3ccccc3)N(c3ccccn3)C2=O)cc1`, the GI50 with OVCAR-5, in the experiment with MDA-N, in the experiment on TK-10, in the experiment on IGROV-1, with OVCAR-4 and with UACC-257 was > 100 µM (inactive) each time. The GI50 in the experiment with SK-MEL-2 was > 100 µM (inactive); in the experiment with HCT-15 it was above 100 µM; in the experiment on MCF7 it was > 100 µM (inactive); with ACHN, > 100 µM (inactive); in the experiment with OVCAR-3, > 100 µM (inactive); with 786-0 it was > 100 µM (inactive). Also, the GI50 in the experiment with COLO 205, with Malme-3M, in the experiment with SK-OV-3, in the experiment on SK-MEL-5, with Hs-578T and with U-251 was > 100 µM (inactive) throughout. The GI50 with MDA-MB-435 was > 100 µM (inactive).

Consider `C/C(=N\N=C(\N)SB(F)F)c1ccc2ccccc2c1`, for which the GI50 in the experiment with OVCAR-5, in the experiment with MDA-N, with TK-10, in the experiment on IGROV-1, with OVCAR-4 and in the experiment with UACC-257 was > 100 µM (inactive) each time. The GI50 in the experiment on NCI-H23 is > 100 µM (inactive); in the experiment on SK-MEL-2 it was > 100 µM (inactive); with HCT-15 it was 95.5 µM; in the experiment on MCF7, 87.7 µM (inactive); in the experiment on ACHN, > 100 µM (inactive); in the experiment with 786-0, > 100 µM (inactive). For the same compound, the GI50 in the experiment on COLO 205, in the experiment on Malme-3M, in the experiment with SK-OV-3, with SK-MEL-5, with Hs-578T and in the experiment with U-251 was > 100 µM (inactive) throughout. For the same compound, the GI50 in the experiment with MDA-MB-435 is > 100 µM (inactive).

On to `Nc1ccccc1C(=O)CC1OC(=O)c2ccccc21` (centres undefined), for which the GI50 in the experiment on OVCAR-5 is > 100 µM (inactive); in the experiment on MDA-N, 78.7 µM (inactive); with TK-10 it was > 100 µM (inactive); with IGROV-1, > 100 µM (inactive); with OVCAR-4, 65.5 µM (inactive); in the experiment on UACC-257 it was > 100 µM (inactive). Moreover, the GI50 was 14 µM (inactive) in the experiment with SK-MEL-2; 86.5 µM with HCT-15; > 100 µM (inactive) with MCF7; > 100 µM (inactive) with ACHN; 78.3 µM (inactive) in the experiment with OVCAR-3; 88.5 µM (inactive) in the experiment on 786-0. Further, the GI50 is 50.5 µM (inactive) with Malme-3M; > 100 µM (inactive) in the experiment on SK-OV-3; 46.8 µM (inactive) in the experiment on Hs-578T; 48.4 µM (inactive) with U-251; 57.4 µM (inactive) in the experiment on MDA-MB-435.

For the compound `O=C(c1ccc(Cl)cc1)N(C(=S)OC12CC3CC(CC(C3)C1)C2)c1ccccc1`, the GI50 in the experiment with OVCAR-5 is 45.6 µM (inactive); in the experiment on MDA-N it was 49.5 µM (inactive); in the experiment with TK-10 it was 37.1 µM (inactive); in the experiment on OVCAR-4, 39.5 µM (inactive); in the experiment on UACC-257, 46.6 µM (inactive); with NCI-H23 it was 35.6 µM (inactive). The GI50 is 30.1 µM (inactive) with SK-MEL-2; 34.6 µM with HCT-15; 33.3 µM (inactive) in the experiment on MCF7; 34.8 µM (inactive) in the experiment on ACHN; 44.6 µM (inactive) with OVCAR-3; 29.6 µM (inactive) in the experiment with 786-0. Moreover, the GI50 in the experiment with COLO 205 is 16.8 µM (inactive); in the experiment on Malme-3M it was 54.3 µM (inactive); with SK-OV-3, 53.1 µM (inactive); in the experiment on SK-MEL-5 it was 32 µM (inactive); in the experiment on Hs-578T, 39.9 µM (inactive); in the experiment on U-251 it was 30.2 µM (inactive). Besides, the GI50 with MDA-MB-435 is 43.8 µM (inactive).

Turning to `O=C1/C(=C/c2ccccc2)CCCc2ccccc21`, the GI50 was 19.1 µM (inactive) in the experiment with OVCAR-5; 19 µM (inactive) in the experiment with MDA-N; 19.8 µM (inactive) with TK-10; 19.6 µM (inactive) in the experiment with IGROV-1; 17.3 µM (inactive) with OVCAR-4; 15.7 µM (inactive) in the experiment with UACC-257. In addition, the GI50 in the experiment with NCI-H23 is 17.5 µM (inactive); with SK-MEL-2 it was 16.2 µM (inactive); in the experiment on HCT-15, 16.2 µM; with MCF7, 17.4 µM (inactive); in the experiment on ACHN, 20.8 µM (inactive); with OVCAR-3, 18.4 µM (inactive). Besides, the GI50 in the experiment on 786-0 is 16.4 µM (inactive); in the experiment on COLO 205 it was 18.6 µM (inactive); in the experiment with Malme-3M, 20.8 µM (inactive); with SK-OV-3, 38.2 µM (inactive); in the experiment with Hs-578T it was 21.9 µM (inactive); with U-251, 15.7 µM (inactive). Also, in the experiment with MDA-MB-435, the GI50 was 18.3 µM (inactive).
